Values joined by “and” are separate entries in the source; they are usually repeats but may differ in a detail not shown here. Equal values may be shown once.
Tested on: Rattus norvegicus
[1] = reproduction developmental, duration: 9 days, inhalation, F, Crl:CD(SD) BR, generation: P0, P0: Whole Body: Maternal Body Weight Change
[2] = reproduction developmental, duration: 9 days, inhalation, F, Sprague-Dawley, generation: P0, P0: General Toxicity: Whole Body: Clinical Observations + P0: General Toxicity: Whole Body: Maternal Body Weight Change
[3] = short-term, duration: 4 weeks, inhalation, F, Wistar, Multi-organ: Inorganic Phosphorous (PHOS), Blood
[4] = short-term, duration: 4 weeks, inhalation, M, Wistar, Blood: Partial Thromboplastin Time (PTT) + Liver: Cytoplasmic Vacuolation, Fatty Hepatocellular
[5] = subchronic, duration: 90 days, inhalation, F, RccHan (Wist), Blood: Large Unstained Cells + Blood: Lymphocyte + Blood: Monocytes
[6] = subchronic, duration: 90 days, inhalation, F, Wistar, General Toxicity: Whole Body: Body Weight Change + Immune: Blood: Large Unstained Cells + Immune: Blood: Lymphocyte + Immune: Blood: …
[7] = subchronic, duration: 90 days, inhalation, F, Wistar, Immune: Blood: Large Unstained Cells + Immune: Blood: Lymphocyte + Immune: Blood: Monocytes + Immune: Blood: White Blood Cell (WBC)
[8] = subchronic, duration: 90 days, inhalation, M/F, Wistar, Immune: Blood: Basophils + Immune: Blood: Eosinophils + Immune: Blood: Neutrophils
[9] = subchronic, duration: 90 days, inhalation, M, RccHan (Wist), Blood: Lymphocyte + Blood: Monocytes + Blood: White Blood Cell (WBC)
[10] = subchronic, duration: 90 days, inhalation, M, Wistar, General Toxicity: Whole Body: Body Weight Change + Immune: Blood: Large Unstained Cells + Immune: Blood: Lymphocyte + Immune: Blood: …
[11] = subchronic, duration: 90 days, inhalation, M, Wistar, Immune: Blood: Large Unstained Cells + Immune: Blood: Lymphocyte + Immune: Blood: Monocytes + Immune: Blood: White Blood Cell (WBC)
[12] = short-term, duration: 3 days, injection, subcutaneous, F, Crj:CD, uterus: uterine dry weight (absolute)
[13] = short-term, duration: 3 days, injection, subcutaneous, F, Sprague-Dawley, uterus: absolute blotted uterine weight
[14] = short-term, duration: 10 days, oral, gavage, M, BrlHan:WIST, body weight
[15] = short-term, duration: 10 days, oral, gavage, M, BrlHan:WIST, male accessory sex gland: BC/LA weight (relative)
[16] = short-term, duration: 10 days, oral, gavage, M, BrlHan:WIST, male accessory sex gland: relative bulbourethral gland weight in the presence of TP + male accessory sex gland: relative seminal vesicle …
[17] = short-term, duration: 10 days, oral, gavage, M, BrlHan:WIST, male accessory sex gland: relative ventral prostate weight in the presence of TP
[18] = short-term, duration: 28 days, oral, gavage, F, Sprague-Dawley, Liver: Liver Weight, Absolute + Liver: Liver Weight, Relative + Thyroid: Thyroid Gland Weight, Relative + Whole Body: Body Weight, Absolute…
[19] = short-term, duration: 28 days, oral, gavage, F, Sprague-Dawley, Pituitary: Thyroid stimulating hormone (TSH) + Thyroid: Thyroxine (T4), Free (Free T4)
[20] = short-term, duration: 28 days, oral, gavage, M, Sprague-Dawley, Epididymis: Epididymis Weight, Absolute + Epididymis: Epididymis Weight, Relative + Liver: Liver Weight, Relative + Liver: Liver, Abnormal …
[21] = short-term, duration: 28 days, oral, gavage, M, Sprague-Dawley, Epididymis: Epididymis, Abnormal Size + Pituitary: Thyroid stimulating hormone (TSH) + Prostate: Prostate, Abnormal Size + Seminal Vesicles…

C=CC(F)(F)C(F)(F)C(F)(F)C(F)(F)F [3,3,4,4,5,5,6,6,6-Nonafluorohexene]
70000 mg/m3: NOAEL (developmental, duration: 9 days, inhalation, Sprague-Dawley, generation: F1, F1: Developmental: Whole Body: External Abnormalities)
20100 mg/m3: NEL [3] | NEL [4]
103000 mg/m3: NEL (subchronic, duration: 90 days, inhalation, F, RccHan (Wist), Blood: White Blood Cell (WBC) + Whole Body: Body Weight Change) | NOAEL (subchronic, duration: 90 days, inhalation, F, Wistar, General Toxicity: Whole Body: Body Weight Change) | NEL (subchronic, duration: 90 days, inhalation, M/F, RccHan (Wist), Blood: Activated Partial Thromboplastin Time (APTT) + Blood: Basophils + Blood: Calcium (CA), Blood + Blood: Chloride (CL), Blood + Blood: …) | NEL (subchronic, duration: 90 days, inhalation, M, RccHan (Wist), Blood: Large Unstained Cells + Whole Body: Body Weight Change) | LEL [9] | NOAEL (subchronic, duration: 90 days, inhalation, M, Wistar, General Toxicity: Whole Body: Body Weight Change)
30600 mg/m3: LEL [5] | LOAEL [6] | LOAEL [7] | LOAEL (subchronic, duration: 90 days, inhalation, M/F, Wistar, Endocrine: Blood: Glucose (GLU) + Endocrine: Blood: Triglycerides (TRIG) + Endocrine: Serum: Cholesterol (CHOL), Total + General Toxicity: …) | LOAEL [8] | NEL [9] | LOAEL [10] | LOAEL [11]
10100 mg/m3: NEL [1] | NOAEL [2] | NEL [5] | NOAEL [6] | NOAEL [7] | NOAEL [8] | NOAEL [10] | NOAEL [11]
101000 mg/m3: NEL (short-term, duration: 4 weeks, inhalation, F, Wistar, Adrenal: Adrenal Gland Weight, Absolute + Adrenal: Adrenal Gland Weight, Relative + Blood: Partial Thromboplastin Time (PTT) + Blood: …) | LEL [3] | NEL (short-term, duration: 4 weeks, inhalation, M, Wistar, Adrenal: Adrenal Gland Weight, Absolute + Adrenal: Adrenal Gland Weight, Relative + Blood: Prothrombin Time (PT) + Kidney: Kidney Weight, …) | LEL [4]
704000 mg/m3 and 705000 mg/m3: NEL (developmental, duration: 9 days, inhalation, M/F, Crl:CD(SD) BR, generation: F1, F1: Uterus: Fetuses, Dead + F1: Uterus: Fetuses, Live + F1: Whole Body: Body Weight, Fetal + F1: Whole Body: External Abnormalities + F1: …) | NEL (reproduction developmental, duration: 9 days, inhalation, F, Crl:CD(SD) BR, generation: P0, P0: Liver: Liver Weight, Unspecified + P0: Ovary: Corpora Lutea + P0: Uterus: Implantation + P0: Uterus: Resorptions, Early + P0: Uterus: …) | LEL [1]
705000 mg/m3 and 704000 mg/m3: LOAEL (developmental, duration: 9 days, inhalation, Sprague-Dawley, generation: F1, F1: Developmental: Skeleton: Skeletal Malformation + F1: Developmental: Skeleton: Skeletal Ossification Variations + F1: Developmental: Soft…) | LOAEL (reproduction developmental, duration: 9 days, inhalation, F, Sprague-Dawley, generation: P0, P0: Developmental: Uterus: Implantation + P0: Developmental: Uterus: Resorptions, Early + P0: Developmental: Uterus: Resorptions, Late + P0…) | LOAEL [2]

CCC(C)(c1ccc(O)cc1)c1ccc(O)cc1 [Bisphenol B]
50 mg/kg-day: NOEL [15] | NOEL [17]
200 mg/kg-day: LOEL [12] | LOEL [13] | NOEL [14] | LOEL [15] | NOEL [16] | LOEL [17]
600 mg/kg-day: LOEL [14] | NOEL (short-term, duration: 10 days, oral, gavage, M, BrlHan:WIST, body weight in the presence of TP + body weight the absence of TP + male accessory sex gland: relative bulbourethral gland weight in the …) | NOEL (short-term, duration: 10 days, oral, gavage, M, BrlHan:WIST, male accessory sex gland: Cowper's gland weight (relative) + male accessory sex gland: glans penis weight (relative) + male accessory sex …) | LOEL [16]
20 mg/kg-day: NOEL [12] | NOEL [13]

FC(F)(I)C(F)(F)C(F)(F)C(F)(F)I [Perfluoro-1,4-diiodobutane]
1 mg/kg-day: LOAEL (short-term, duration: 28 days, oral, gavage, M, Sprague-Dawley, Thyroid: Triiodothyronine, Free (Free T3))
10 mg/kg-day: NOAEL [18] | LOAEL [19] | NOAEL [20] | LOAEL [21]
3 mg/kg-day: NOAEL [19] | NOAEL [21]
30 mg/kg-day: LOAEL [18] | NOAEL (short-term, duration: 28 days, oral, gavage, F, Sprague-Dawley, Liver: Liver, Abnormal Area(s) + Liver: Liver, Abnormal Shape + Multi-organ: Follicle stimulating hormone (FSH) + Multi-organ: Luteinizing …) | LOAEL [20] | NOAEL (short-term, duration: 28 days, oral, gavage, M, Sprague-Dawley, Liver: Liver Weight, Absolute + Liver: Liver, Abnormal Area(s) + Liver: Liver, Abnormal Shape + Liver: Liver, Abnormal Size + Multi-organ: …)
